Measured values taken from patent US20260240851A1, “Treatment of Parkinson's Disease in a Patient Using a Glucocerebrosidase Activator” (BIAL - R&D Investments, S.A., priority 2023, published 2026).
Where two headings read alike, the source gives them in different places.

Columns and labels:
[1] = BIA 28-6156-105: safety and tolerability
[2] = LTI-291-002: safety and tolerability; type: in vivo, human
Method: (§1) This study was a phase 1, randomized, double-blind, placebo-controlled, multiple ascending dose study of Compound A in 4 cohorts of middle-aged to elderly healthy participants (aged 52 to 75 years). […] A total of 39 healthy subjects were enrolled in 4 sequential cohorts. Subjects in each cohort received once-daily oral doses of 3 mg (n=7), 10 mg (n=8), 30 mg (n=8), or 60 mg (n=8) Compound A or placebo (n=8) for 14 days. Pharmacokinetic parameters were determined for each dose at Day 1, Day 7, and Day 14. Cerebrospinal fluid samples for Compound A concentrations were measured before the first dose and 4 hours after the last dose for each dose level. GluCer, glucosyl sphingosine (GluSph), and lactosyl-ceramide (LacCer) were measured in plasma, PBMCs, and CSF as biomarkers of pharmacological effects. Pharmacodynamic measurements consisted of battery of CNS (NeuroCart®) assessments including Saccadic Eye Movements, Smooth Pursuit Eye Movements, Adaptive Tracking, Body Sway, Visual Verbal Learning Test, and pharmaco-EEG.

[3] = after 6 days of dosing with 60 mg, Sinemet portion
Method: (§2) This was a Phase 1, non-randomized, open-label, 2-cohort, cross-over, DDI study in healthy male and female subjects.
In Cohort 1, a single oral dose 100 mg/25 mg levodopa-carbidopa (Sinemet®) IR was administered alone on Day 1.

[4] = LTI-291-002 multiple ascending dose study: plasma and CSF pharmacokinetics; type: in vivo, human
Method: as §1

clinical = conditions: both, human, plasma, 60 mg; for AUC(0-t): Madopar portion, geometric mean
Method: as §2
In Cohort 2, a single oral dose 100 mg/25 mg levodopa-benserazide (Madopar®) IR was administered alone on Day 1.

[5] = 3 mg daily, dose 1, geometric mean
[6] = 3 mg daily, dose 7, geometric mean
[7] = 3 mg daily, dose 14, geometric mean
[8] = 10 mg daily, dose 1, geometric mean
[9] = 10 mg daily, dose 7, geometric mean
[10] = 10 mg daily, dose 14, geometric mean
[11] = 30 mg daily, dose 1, geometric mean
[12] = 30 mg daily, dose 7, geometric mean
[13] = 30 mg daily, dose 14, geometric mean
[14] = 60 mg daily, dose 1, geometric mean
[15] = 60 mg daily, dose 7, geometric mean
[16] = 60 mg daily, dose 14, geometric mean
[17] = human, plasma, oral, 3 mg, 3 mg daily, dose 1, geometric mean
[18] = human, plasma, oral, 3 mg, 3 mg daily, dose 7, geometric mean
[19] = human, plasma, oral, 3 mg, 3 mg daily, dose 14, geometric mean
[20] = human, plasma, oral, 10 mg, 10 mg daily, dose 1, geometric mean
[21] = human, plasma, oral, 10 mg, 10 mg daily, dose 7, geometric mean
[22] = human, plasma, oral, 10 mg, 10 mg daily, dose 14, geometric mean
[23] = human, plasma, oral, 30 mg, 30 mg daily, dose 1, geometric mean
[24] = human, plasma, oral, 30 mg, 30 mg daily, dose 7, geometric mean
[25] = human, plasma, oral, 30 mg, 30 mg daily, dose 14, geometric mean
[26] = human, plasma, oral, 60 mg, 60 mg daily, dose 1, geometric mean
[27] = human, plasma, oral, 60 mg, 60 mg daily, dose 7, geometric mean
[28] = human, plasma, oral, 60 mg, 60 mg daily, dose 14, geometric mean

## CCCCCO[C@H]1CC[C@H](NC(=O)c2cnn3c(C)cc(C)nc23)CC1 [Compound A, 5,7-dimethyl-N-((1S*,4S)-4-(pentyloxy)cyclohexyl)pyrazolo[1,5-a]pyrimidine-3-carboxamide]
[1]; after 150 mg Compound A
  laboratory values considered related to Compound A: increased ALT and increased GGT in 1 subject
[1]; in vivo
  deaths or other SAEs: No deaths or other SAEs
[1]; reported in 2 subjects
  TEAEs considered related to Compound A 150 mg: 4 of 90 TEAEs
[2]; 3 mg dose group
  Myalgia, subjects: 14%
  Somnolence, subjects: 14%
[2]; 10 mg dose group
  Myalgia, subjects: 0%
  Somnolence, subjects: 0%
[2]; 30 mg dose group
  Myalgia, subjects: 13%
  Somnolence, subjects: 0%
[2]; 60 mg dose group
  Myalgia, subjects: 38%
  Somnolence, subjects: 50%
[2]; 60 mg group
  creatine kinase abnormalities: No clinically significant creatine kinase abnormalities
[2]; 3-60 mg daily for 14 days
  deaths, SAEs, severe AEs, discontinuations due to AEs: No deaths, other SAEs, severe AEs, or discontinuations due to AEs
[2]; 14 days
  vital signs, laboratory safety assessments, ECG parameters: no clinically significant safety observations
[2]; all Compound A groups
  AE back pain, subjects: 13%
  AE headache, subjects: 39%
  AE myalgia, subjects: 16%
  AE somnolence, subjects: 16%
[3]
  steady state concentrations of Compound A: appeared not to have been reached
[4]; [5]
  AUC0-inf/dose: 818 ng·h/mL/mg
  Cmax/dose: 29.7 ng/mL/mg
[4]; [6]
  AUC0-inf/dose: 1570 ng·h/mL/mg
  Accumulation Index: 2.45
  Cavg: 80.1 ng/mL
  Cmax/dose: 47.2 ng/mL/mg
[4]; [7]
  AUC0-inf/dose: 2520 ng·h/mL/mg
  Accumulation Index: 2.78
  Cavg: 115 ng/mL
  Cmax/dose: 51.0 ng/mL/mg
  Fluctuation: 52.9%
[4]; [8]
  AUC0-inf/dose: 613 ng·h/mL/mg
  Cmax/dose: 30.7 ng/mL/mg
[4]; [9]
  AUC0-inf/dose: 1780 ng·h/mL/mg
  Accumulation Index: 2.29
  Cavg: 322 ng/mL
  Cmax/dose: 50.5 ng/mL/mg
[4]; [10]
  AUC0-inf/dose: 1860 ng·h/mL/mg
  Accumulation Index: 2.49
  Cavg: 313 ng/mL
  Cmax/dose: 49.3 ng/mL/mg
  Fluctuation: 76.0%
[4]; [11]
  AUC0-inf/dose: 753 ng·h/mL/mg
  Cmax/dose: 29.0 ng/mL/mg
[4]; [12]
  AUC0-inf/dose: 1890 ng·h/mL/mg
  Accumulation Index: 2.11
  Cavg: 1100 ng/mL
  Cmax/dose: 53.3 ng/mL/mg
[4]; [13]
  AUC0-inf/dose: 4620 ng·h/mL/mg
  Accumulation Index: 5.22
  Cavg: 1090 ng/mL
  Cmax/dose: 50.0 ng/mL/mg
  Fluctuation: 58.1%
[4]; [14]
  AUC0-inf/dose: 655 ng·h/mL/mg
  Cmax/dose: 32.6 ng/mL/mg
[4]; [15]
  AUC0-inf/dose: 2310 ng·h/mL/mg
  Accumulation Index: 2.72
  Cavg: 2170 ng/mL
  Cmax/dose: 53.2 ng/mL/mg
[4]; [16]
  AUC0-inf/dose: 2160 ng·h/mL/mg
  Accumulation Index: 2.53
  Cavg: 2120 ng/mL
  Cmax/dose: 51.2 ng/mL/mg
  Fluctuation: 67.6%
[4]; 3 to 60 mg, after 1st, 7th and 14th dose
  total exposure (Cmax and AUC0-24) versus dose: increase in a dose proportional manner
[4]; human, CSF and plasma, oral, after the 14th daily dose, across dose levels, read-out: CSF-to-plasma concentration ratio, mean
  Kp at 4 h: 0.0122 to 0.0128
[4]; human, in vivo, oral, multiple doses, read-out: t½ after multiple doses in Trial LTI-291-002
  half-life: 25 to 35 h
[4]; [17]
  AUC(0-inf): 2450 ng·h/mL
  Cmax: 89.1 ng/mL
[4]; human, plasma, oral, 3 mg, 3 mg daily, dose 1, geometric mean, read-out: AUC0-24
  AUC(0-t): 1050 ng·h/mL
[4]; human, plasma, oral, 3 mg, 3 mg daily, dose 1, geometric mean, read-out: AUC0-last
  AUC(0-t): 1040 ng·h/mL
[4]; human, plasma, oral, 3 mg, 3 mg daily, dose 1, geometric mean, read-out: t½ (converted)
  half-life: 27.9 h
[4]; [18]
  AUC(0-inf): 4720 ng·h/mL
  Cmax: 142 ng/mL
[4]; human, plasma, oral, 3 mg, 3 mg daily, dose 7, geometric mean, read-out: AUC0-24
  AUC(0-t): 1920 ng·h/mL
[4]; human, plasma, oral, 3 mg, 3 mg daily, dose 7, geometric mean, read-out: AUC0-last
  AUC(0-t): 2420 ng·h/mL
[4]; human, plasma, oral, 3 mg, 3 mg daily, dose 7, geometric mean, read-out: t½ (converted)
  half-life: 31.3 h
[4]; [19]
  AUC(0-inf): 7560 ng·h/mL
  Cmax: 153 ng/mL
[4]; human, plasma, oral, 3 mg, 3 mg daily, dose 14, geometric mean, read-out: AUC0-24
  AUC(0-t): 2770 ng·h/mL
[4]; human, plasma, oral, 3 mg, 3 mg daily, dose 14, geometric mean, read-out: AUC0-last
  AUC(0-t): 4510 ng·h/mL
[4]; human, plasma, oral, 3 mg, 3 mg daily, dose 14, geometric mean, read-out: t½ (converted)
  half-life: 36.5 h
[4]; [20]
  AUC(0-inf): 6130 ng·h/mL
  Cmax: 307 ng/mL
[4]; human, plasma, oral, 10 mg, 10 mg daily, dose 1, geometric mean, read-out: AUC0-24
  AUC(0-t): 3410 ng·h/mL
[4]; human, plasma, oral, 10 mg, 10 mg daily, dose 1, geometric mean, read-out: AUC0-last
  AUC(0-t): 3380 ng·h/mL
[4]; human, plasma, oral, 10 mg, 10 mg daily, dose 1, geometric mean, read-out: t½ (converted)
  half-life: 20.7 h
[4]; [21]
  AUC(0-inf): 17800 ng·h/mL
  Cmax: 505 ng/mL
[4]; human, plasma, oral, 10 mg, 10 mg daily, dose 7, geometric mean, read-out: AUC0-24
  AUC(0-t): 7730 ng·h/mL
[4]; human, plasma, oral, 10 mg, 10 mg daily, dose 7, geometric mean, read-out: AUC0-last
  AUC(0-t): 7820 ng·h/mL
[4]; human, plasma, oral, 10 mg, 10 mg daily, dose 7, geometric mean, read-out: t½ (converted)
  half-life: 28.7 h
[4]; [22]
  AUC(0-inf): 18600 ng·h/mL
  Cmax: 493 ng/mL
[4]; human, plasma, oral, 10 mg, 10 mg daily, dose 14, geometric mean, read-out: AUC0-24
  AUC(0-t): 7510 ng·h/mL
[4]; human, plasma, oral, 10 mg, 10 mg daily, dose 14, geometric mean, read-out: AUC0-last
  AUC(0-t): 11900 ng·h/mL
[4]; human, plasma, oral, 10 mg, 10 mg daily, dose 14, geometric mean, read-out: t½ (converted)
  half-life: 32.1 h
[4]; [23]
  AUC(0-inf): 22600 ng·h/mL
  Cmax: 869 ng/mL
[4]; human, plasma, oral, 30 mg, 30 mg daily, dose 1, geometric mean, read-out: AUC0-24
  AUC(0-t): 10600 ng·h/mL
[4]; human, plasma, oral, 30 mg, 30 mg daily, dose 1, geometric mean, read-out: AUC0-last
  AUC(0-t): 10400 ng·h/mL
[4]; human, plasma, oral, 30 mg, 30 mg daily, dose 1, geometric mean, read-out: t½ (converted)
  half-life: 26 h
[4]; [24]
  AUC(0-inf): 56800 ng·h/mL
  Cmax: 1600 ng/mL
[4]; human, plasma, oral, 30 mg, 30 mg daily, dose 7, geometric mean, read-out: AUC0-24
  AUC(0-t): 26500 ng·h/mL
[4]; human, plasma, oral, 30 mg, 30 mg daily, dose 7, geometric mean, read-out: AUC0-last
  AUC(0-t): 26300 ng·h/mL
[4]; human, plasma, oral, 30 mg, 30 mg daily, dose 7, geometric mean, read-out: t½ (converted)
  half-life: 25.7 h
[4]; [25]
  AUC(0-inf): 139000 ng·h/mL
  Cmax: 1500 ng/mL
[4]; human, plasma, oral, 30 mg, 30 mg daily, dose 14, geometric mean, read-out: AUC0-24
  AUC(0-t): 26200 ng·h/mL
[4]; human, plasma, oral, 30 mg, 30 mg daily, dose 14, geometric mean, read-out: AUC0-last
  AUC(0-t): 45000 ng·h/mL
[4]; human, plasma, oral, 30 mg, 30 mg daily, dose 14, geometric mean, read-out: t½ (converted)
  half-life: 75 h
[4]; [26]
  AUC(0-inf): 39300 ng·h/mL
  Cmax: 1950 ng/mL
[4]; human, plasma, oral, 60 mg, 60 mg daily, dose 1, geometric mean, read-out: AUC0-24
  AUC(0-t): 19600 ng·h/mL
[4]; human, plasma, oral, 60 mg, 60 mg daily, dose 1, geometric mean, read-out: AUC0-last
  AUC(0-t): 19200 ng·h/mL
[4]; human, plasma, oral, 60 mg, 60 mg daily, dose 1, geometric mean, read-out: t½ (converted)
  half-life: 25.1 h
[4]; [27]
  AUC(0-inf): 139000 ng·h/mL
  Cmax: 3190 ng/mL
[4]; human, plasma, oral, 60 mg, 60 mg daily, dose 7, geometric mean, read-out: AUC0-24
  AUC(0-t): 52100 ng·h/mL
[4]; human, plasma, oral, 60 mg, 60 mg daily, dose 7, geometric mean, read-out: AUC0-last
  AUC(0-t): 50300 ng·h/mL
[4]; human, plasma, oral, 60 mg, 60 mg daily, dose 7, geometric mean, read-out: t½ (converted)
  half-life: 35.8 h
[4]; [28]
  AUC(0-inf): 130000 ng·h/mL
  Cmax: 3070 ng/mL
[4]; human, plasma, oral, 60 mg, 60 mg daily, dose 14, geometric mean, read-out: AUC0-24
  AUC(0-t): 50900 ng·h/mL
[4]; human, plasma, oral, 60 mg, 60 mg daily, dose 14, geometric mean, read-out: AUC0-last
  AUC(0-t): 82000 ng·h/mL
[4]; human, plasma, oral, 60 mg, 60 mg daily, dose 14, geometric mean, read-out: t½ (converted)
  half-life: 32.9 h
[4]; human, plasma, oral, after the 1st dose, across dose levels, read-out: mean t1/2
  half-life: 20.7 to 27.9 h
[4]; human, plasma, oral, after the 7th dose, across dose levels, read-out: mean t1/2
  half-life: 25.7 to 35.8 h
[4]; human, plasma, oral, after the 14th dose, across dose levels, read-out: mean t1/2
  half-life: 32.1 to 75 h
[4]; once-daily dosing
  steady-state conditions: achieved by the 7th daily dose
clinical
  Cmax: 2030 ng/mL
  Tmax: 2 h
clinical; AUC0-24, 60 mg Compound A alone
  AUC(0-t): 24000 ng·h/mL
clinical; AUC0-t, 60 mg Compound A alone
  AUC(0-t): 22800 ng·h/mL
